Assay results reported in US7091199B1, “Thienoisoxazole phenoxy unsubstituted ethyl and propyl derivatives useful as d4 antagonists” (Aventis Pharmaceuticals Inc., priority 1999, dated 2006).
Counter-ions that a name gives are not always drawn. Like-named read-outs stand apart in the source and are kept apart here.

Tests used:
[1] = tested on: CD-1 or C57 male mice (MK-801 induced stereotypy); assay: MK-801 Stereotypy in Mice; assay type: in vivo; details: for ED50 / inhibition in vivo at 20 mg/kg: Mus musculus; for ED50: MK-801 stereotypy, read-out: In Vivo ED50; for inhibition in vivo at 20 mg/kg: read-out: Antag. of MK 801 Stereotypy % Inhib. @ 20 mg/kg
Procedure: Mk-801 dose-dependently induces characteristic stereotypy marked by locomotion and falling behavior. This MK-801 induced behavior can be antagonized by novel neuroleptic agents. This assay can also assess time course effects following drug administration.
CD-1 or C57 male mice are individually placed in activity boxes (8 mice/drug) and allowed to acclimate for 60 minutes. The mice are then administered test compounds either i.p., s.c., or p.o., at 15, 30, or 60 minutes prior to MK-801 (0.2 mg/kg) administration. Mice are observed for the presence of locomotion and falling behaviors 15 minutes following MK-801. For the duration of action studies the test compounds are administered i.p., s.c., or p.o., at 30, 60, 120, 180, and 240 minutes prior to MK-801 administration.

[2] = biological target: T1, human D4 receptor (D4.2 sub-type) (Homo sapiens, UniProt P21917, DEL271-302); assay: D4 receptor binding assay (3H-spiperone displacement); details: for Ki: 3H-spiperone 0.25 nM, HEK cell membranes, human D4.2, read-out: D4 RBA Ki; for inhibition at 1 µM: @ 1 μM test compound, 3H-spiperone binding, read-out: D4 RBA % Inhibition (@ 1 μM)
T1 sequence (P21917 with tags, fused parts or gaps DEL271-302): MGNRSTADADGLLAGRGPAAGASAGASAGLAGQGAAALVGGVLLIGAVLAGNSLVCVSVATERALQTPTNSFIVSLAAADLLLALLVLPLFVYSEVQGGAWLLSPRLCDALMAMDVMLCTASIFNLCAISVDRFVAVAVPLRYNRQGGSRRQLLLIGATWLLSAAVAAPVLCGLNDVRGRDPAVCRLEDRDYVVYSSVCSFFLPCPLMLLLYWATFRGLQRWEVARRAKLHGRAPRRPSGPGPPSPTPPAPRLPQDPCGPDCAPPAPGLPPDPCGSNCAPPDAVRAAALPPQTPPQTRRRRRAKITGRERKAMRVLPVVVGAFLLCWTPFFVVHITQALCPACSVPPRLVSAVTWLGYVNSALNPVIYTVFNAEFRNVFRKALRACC
Procedure: D4 receptor-binding affinities of the compounds were evaluated according to their ability to reduce binding of ^3H-spiperone as compared to the reference compound clozapine. The potency of the test compound to reduce ^3H-spiperone binding directly correlated to its binding affinity for the receptor.
[…] (human embryonic kidney) cells stably transfected with human D4 receptor (D4.2 sub-type) were grown in NUNC cell factories for 5 days (75% confluency) without a media change and removed with versene (approximately 19 mg of cells per cell factory tray). The cells were then centrifuged in a Sorval centrifuge for 10 min, 5000 rpm (GS3 rotor) and the pellets quickly frozen in liquid nitrogen and stored at −80° C. until used in binding assay. When used in the assay, cells were thawed on ice for 20 min and then 10 mL of incubation buffer (50 mM Tris, 1 mM EDTA, 4 mM MgCl2, 5 mM KCl, 1.5 mM CaCl2, 120 mM NaCl, pH 7.4) was added. The cells were then vortexed to resuspend pellet and homogenized with a Kinematica, CH-6010 Kriens-LU, homogenizer for 15 seconds at setting 7. Concentration of receptor protein was determined using the Pierce BCA assay.
The incubation was started by the addition of 100 μl (50 μg protein) membrane homogenate to a solution of 300 μl incubation buffer and 100 μl (0.25 nM final conc.) ^3H-spiperone (90 Ci/mmol, Amersham, diluted in borosilicate glass vial) in 96-well polypropylene plates (1 mL per well). The plates were vortexed and incubated at room temperature for 90 minutes. The binding reaction was stopped by filtering using a Packard Harvester. The samples were filtered under vacuum over glass fibre filter plates (Whatman GF/B) presoaked for 2 hours in 0.3% polyethylenimine (PEI) in 50 mM Tris buffer (pH 7.4). The filters were then washed 6 times with 7 mL ice cold 50 mM Tris buffer (pH 7.4). The filter plates were dried overnight and 35 μl of Microscint-O (Packard) was added. The plates were sealed and counted in the Packard Top Count (3 minutes per well).
The incubation was started by the addition of 100 μl (50 μg protein) membrane homogenate to a solution of 200 μl incubation buffer, 100 μl ^3H-spiperone (90 Ci/mmol, Amersham, diluted in borosilicate glass vial to 0.25 nM final conc.) and 100 μl (30 μM final conc.) of fresh dopamine (Research Biochemicals Inc., light protected and dissolved in incubation buffer) in 96-well polypropylene plates (1 mL per well). The plates were vortexed and incubated at room temperature for 90 minutes at which time the binding reaction was stopped by filtering. The filters were washed and counted using the same procedure as in the total binding assay described above to give the non-specific binding value (NSB).
The incubation was started by the addition, in 96-well polypropylene plates (1 mL per well), of 100 μl (50 μg protein) membrane homogenate to a solution of 200 μl incubation buffer, 100 μl (0.25 nM final conc.) ^3H-spiperone (90 Ci/mmol, Amersham, diluted in borosilicate glass vial) and 100 μl of test compound that was prepared from 1 mM stock dissolved in DMSO and stored at −20° C. in polypropylene cryogenic storage vials until dilution in incubation buffer in 96-well polypropylene plates. The plates were vortexed and incubated at room temperature for 90 minutes at which time the binding reaction was stopped by filtering. The filters were washed and counted using the same procedure as in the total binding assay described above to give the displacement binding value (BD).
The test compounds were initially assayed at 1 and 0.1 μM and then at a range of concentrations chosen such that the middle dose would cause about 50% inhibition of ^3H-spiperone binding. Specific binding in the absence of test compound (B0) was the difference of total binding (BT) minus non-specific binding (NSB) and similarly specific binding (in the presence of test compound) (B) was the difference of displacement binding (BD) minus non-specific binding (NSB). […]

[3] = biological target: human D4 receptor with seven repeat units (D4.7 variant); details: read-out: EC50 of dopamine; cited from earlier work
[4] = tested on: D4.2 variant; details: read-out: EC50 of dopamine; cited from earlier work

Row | SMILES | Ki [2] [nM] | inhibition in vivo at 20 mg/kg ([1]; po, 20 mg/kg) [%] | also measured
1 | Cl.c1ccc(CNCCCOc2cccc(-c3noc4ccsc34)c2)cc1 [Compound 1, benzyl-[3-(3-theino[2,3-d]isoxazol-3-yl-phenoxy)-propyl]-amine hydrochloride] | 12 |  | ED50 ([1]; PO): 14.6 mg/kg; melting point: 195 to 197 °C
2 | Fc1ccc(CNCCCOc2cccc(-c3noc4ccsc34)c2)cc1 [Compound 3, (4-fluoro-benzyl)-[3-(3-thieno[2,3-d]isoxazol-3-yl-phenoxy)-propyl]-amine] | 17 | 37.5 | 
3 | c1cc(OCCCNCc2ccsc2)cc(-c2noc3ccsc23)c1 [Compound 7, [3-(3-thieno[2,3-d]isoxazol-3-yl-phenoxy)-propyl]-thiophen-3-yl-methylamine] | 18 | 75 | 
4 | c1cnc(N2CCN(CCCOc3cccc(-c4noc5ccsc45)c3)CC2)nc1 [Compound 13, 3-{3-[3-(4-pyrimidin-2-yl-piperazin-1-yl)-propoxy]-phenyl}-thieno[2,3-d]isoxazole] | 55 |  | inhibition in vivo at 20 mg/kg ([1]; ip, 20 mg/kg): 37.5%
5 | Fc1ccc(CNCCOc2cccc(-c3noc4ccsc34)c2)cc1 [Compound 17, (4-fluoro-benzyl)-[2-(3-thieno[2,3-d]isoxazol-3-yl-phenoxy)-ethyl]-amine] | 12 | 62.5 | ED50 ([1]; PO): 14.1 mg/kg
6 | Clc1ccc(CNCCOc2cccc(-c3noc4ccsc34)c2)cc1 [Compound 18, (4-chloro-benzyl)-[2-(3-thieno[2,3-d]isoxazol-3-yl-phenoxy)-ethyl]-amine] | 34 | 37.5 | 
7 | Fc1cccc(CNCCOc2cccc(-c3noc4ccsc34)c2)c1 [Compound 19, (3-fluoro-benzyl)-[2-(3-thieno[2,3-d]isoxazol-3-yl-phenoxy)-ethyl]-amine] | 15 | 75 | 
8 | Cc1ccc(CNCCOc2cccc(-c3noc4ccsc34)c2)cc1 [Compound 20, (4-methyl-benzyl)-[2-(3-thieno[2,3-d]isoxazol-3-yl-phenoxy)-ethyl]-amine] | 5.27 | 37.5 | 
9 | c1ccc(CNCCOc2cccc(-c3noc4ccsc34)c2)cc1 [Compound 31, benzyl-[2-(3-thieno[2,3-d]isoxazol-3-yl-phenoxy)-ethyl]-amine hydrochloride] |  | 37.5 | inhibition at 1 µM [2]: 100%
10 | Fc1cccc(CNCCOc2cccc(-c3noc4ccsc34)c2)c1.O=C(O)/C=C\C(=O)O [Compound 32, (3-fluoro-benzyl)-[2-(3-thieno[2,3-d]isoxazol-3-yl-phenoxy)-ethyl]-amine maleate] | 10.5 |  | Antag. of MK 801 Stereotypy % Inhib. @ 20 mg/kg ([1]; PO, 20 mg/kg): 62.5%
11 | c1cc(OCCN2CCCCCCC2)cc(-c2noc3ccsc23)c1 [Compound 63, 3-[3-(2-azocan-1-yl-ethoxy)-phenyl]-thieno[2,3-d]isoxazole] |  |  | inhibition at 1 µM [2]: 54%
12 | NCCc1ccc(O)c(O)c1 [dopamine] |  |  | EC50 [3]: 40 nM; EC50 [4]: 15 nM
